Data published in patent publication US20240009191A1, “METHOD AND COMPOSITION FOR THE TREATMENT OF DISEASE” (DIMERIX BIOSCIENCE PTY LTD, priority 2019, published 2024).

How the values were obtained:
Type in all cases: cell-based
AT1R-CXCR2 heteromer [1] = target: T1, AT1R-CXCR2 heteromer (Homo sapiens, UniProt P25025+P30556); experiment: BRET trafficking of CXCR2/Rluc8 (Venus/Kras, Rab5, Rab8) with HA-AT1R, pre-treatment with vehicle or antagonists/inverse agonists; settings: 50 minutes after pre-treatment (10 μM); for effect of both CXCL8 and AngII combined on CXCR2/Rluc8-Venus/Kras BRET / effect of both CXCL8 and AngII combined on CXCR2/Rluc8-Venus/Rab5 BRET / effect of both CXCL8 and AngII combined on CXCR2/Rluc8-Venus/Rab8 BRET: 10 nM CXCL8 and 100 nM AngII; for effect of both CXCL8 and AngII combined on CXCR2/Rluc8-Venus/Kras BRET: FIG. 16C, 16E-16H; for effect of both CXCL8 and AngII combined on CXCR2/Rluc8-Venus/Rab5 BRET: FIG. 17C, 17E-17H; for effect of both CXCL8 and AngII combined on CXCR2/Rluc8-Venus/Rab8 BRET: FIG. 18C, 18E-18H; for effect of AngII on CXCR2/Rluc8-Venus/Kras BRET / effect of AngII on CXCR2/Rluc8-Venus/Rab5 BRET / effect of AngII on CXCR2/Rluc8-Venus/Rab8 BRET: 100 nM AngII only; for effect of AngII on CXCR2/Rluc8-Venus/Kras BRET: FIG. 16B, 16D; for effect of AngII on CXCR2/Rluc8-Venus/Rab5 BRET: FIG. 17B, 17D; for effect of AngII on CXCR2/Rluc8-Venus/Rab8 BRET: FIG. 18B, 18D
T1 sequence (P25025 1-360): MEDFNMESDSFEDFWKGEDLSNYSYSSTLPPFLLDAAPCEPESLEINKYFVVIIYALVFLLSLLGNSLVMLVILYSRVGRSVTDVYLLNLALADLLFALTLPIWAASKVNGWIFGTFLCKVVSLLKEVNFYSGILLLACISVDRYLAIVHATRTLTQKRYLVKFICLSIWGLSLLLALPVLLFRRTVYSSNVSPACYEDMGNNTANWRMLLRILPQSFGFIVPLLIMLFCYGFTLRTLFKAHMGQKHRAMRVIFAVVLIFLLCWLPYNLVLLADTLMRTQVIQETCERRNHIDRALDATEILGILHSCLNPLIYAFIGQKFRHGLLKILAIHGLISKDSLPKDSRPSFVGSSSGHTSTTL
T1 sequence (P30556 1-359): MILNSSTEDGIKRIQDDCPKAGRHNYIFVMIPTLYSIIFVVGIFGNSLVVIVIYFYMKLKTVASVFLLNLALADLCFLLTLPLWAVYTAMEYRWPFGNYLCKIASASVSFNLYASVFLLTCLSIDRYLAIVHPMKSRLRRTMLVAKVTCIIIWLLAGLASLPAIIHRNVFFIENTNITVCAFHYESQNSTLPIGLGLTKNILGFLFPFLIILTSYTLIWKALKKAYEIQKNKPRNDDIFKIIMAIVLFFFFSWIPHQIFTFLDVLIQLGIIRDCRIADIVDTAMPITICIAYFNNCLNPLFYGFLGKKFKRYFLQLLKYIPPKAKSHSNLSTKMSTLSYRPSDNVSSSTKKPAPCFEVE
Method: (§1) HEK293FT cells were seeded in 6-well plates at a density of approximately 700,000 cells/well and maintained at 37° C., 5% CO2 in Complete Media (DMEM containing 0.3 mg/ml glutamine, 100 IU/ml penicillin and 100 μg/ml streptomycin (Gibco/Thermo Fisher)) supplemented with 10% fetal calf serum (FCS; Bovogen). Transient transfections were carried out 24 h after seeding using FuGene6™ (Promega) according to manufacturer instructions. 24 h post-transfection, cells were washed with PBS, detached using 0.05% trypsin/0.53 mM EDTA, resuspended in HEPES-buffered phenol red free Complete Media containing 5% FCS and added to a poly-L-lysine-coated white 96-well microplate (Greiner Bio-One). 48 h post-transfection, bioluminescence resonance energy transfer (BRET) assays were carried out following pre-incubation of cells with EnduRen™ (Promega) at a final concentration of 30 μM, at 37° C., 5% CO2 for 2 h. BRET measurements were taken at 37° C. using the LUMlstar™ or CLARIOstar™ (BMG Labtech).
(§2) For antagonist/inverse agonist assays, cells were pre-incubated with EnduRen for 1.5 hours, followed by the addition of vehicle or antagonists/inverse agonists (10 μM) for another 30 minutes.
(§3) The BRET signal observed between interacting proteins is normalized by subtracting the background BRET ratio. […] In the following examples, the second calculation will be used and the signal is described as ligand-induced BRET′. Furthermore, for data shown in FIGS. 4 to 20, all data points in a given set are corrected relative to the final data point prior to agonist treatment, which is fixed to zero. In keys on FIGS. 7 to 20, “>” means “followed by after 50 minutes”, with agonists added at time zero on the x-axes.
(§4) Prior to agonist treatment (added at 0 minutes), a baseline BRET signal was recorded for each of the combinations for 20 minutes. Data were calculated as ligand-induced BRET relative to the ‘vehicle followed by vehicle’ (veh>veh) data set.

AT1R-CXCR2 heteromer [2] = target: T1, AT1R-CXCR2 heteromer; experiment: BRET Gi coupling, CXCR2/Rluc8, Venus/mGsi and HA-AT1R, pre-treatment with antagonists/inverse agonists; settings: FIGS. 6-15; for effect of CXCL8 only on CXCR2/Rluc8-Venus/mGsi BRET: 10 nM CXCL8, 50 minutes after pre-treatment with antagonists/inverse agonists (10 μM); for effect of CXCL8 and AngII combined on CXCR2/Rluc8-Venus/mGsi BRET: 10 nM CXCL8 and 100 nM AngII; for effect of CXCL8 and AngII combined on CXCR2/Rluc8-Venus/mGsi BRET / effect of AngII only on CXCR2/Rluc8-Venus/mGsi BRET: 50 minutes after pre-treatment with antagonists/inverse agonists (10 μM); for effect of AngII only on CXCR2/Rluc8-Venus/mGsi BRET: 100 nM AngII
Method: as §1, §2, §3, §4

AT1R-CXCR2 heteromer [3] = target: T2, AT1R-CXCR2 heteromer (Homo sapiens, UniProt P25025+P30556); experiment: BRET trafficking of AT1R/Rluc8 (Venus/Kras, Rab5) with unlabelled CXCR2, pre-treatment with vehicle or antagonists/inverse agonists; settings: 50 minutes after pre-treatment (10 μM); for effect of both CXCL8 and AngII combined on AT1R/Rluc8-Venus/Kras BRET / effect of both CXCL8 and AngII combined on AT1R/Rluc8-Venus/Rab5 BRET: 10 nM CXCL8 and 100 nM AngII; for effect of both CXCL8 and AngII combined on AT1R/Rluc8-Venus/Kras BRET: FIG. 19B-19F; for effect of both CXCL8 and AngII combined on AT1R/Rluc8-Venus/Rab5 BRET: FIG. 20B-20F; for effect of AngII on AT1R/Rluc8-Venus/Kras BRET / effect of AngII on AT1R/Rluc8-Venus/Rab5 BRET: 100 nM AngII only; for effect of AngII on AT1R/Rluc8-Venus/Kras BRET: FIG. 19A; for effect of AngII on AT1R/Rluc8-Venus/Rab5 BRET: FIG. 20A
T2 sequence (P30556 1-359): T1 sequence (P30556 1-359)
T2 sequence (P25025 1-360): T1 sequence (P25025 1-360)
Method: as §1, §2, §3, §4

Row | Structure (SMILES) | effect of both CXCL8 and AngII combined on CXCR2/Rluc8-Venus/Kras BRET (AT1R-CXCR2 heteromer [1]) | effect of both CXCL8 and AngII combined on CXCR2/Rluc8-Venus/Rab5 BRET (AT1R-CXCR2 heteromer [1]) | effect of both CXCL8 and AngII combined on CXCR2/Rluc8-Venus/Rab8 BRET (AT1R-CXCR2 heteromer [1]) | effect of AngII on CXCR2/Rluc8-Venus/Kras BRET (AT1R-CXCR2 heteromer [1]) | effect of AngII on CXCR2/Rluc8-Venus/Rab5 BRET (AT1R-CXCR2 heteromer [1]) | effect of AngII on CXCR2/Rluc8-Venus/Rab8 BRET (AT1R-CXCR2 heteromer [1]) | effect of CXCL8 only on CXCR2/Rluc8-Venus/mGsi BRET (AT1R-CXCR2 heteromer [2]) | effect of CXCL8 and AngII combined on CXCR2/Rluc8-Venus/mGsi BRET (AT1R-CXCR2 heteromer [2]) | effect of AngII only on CXCR2/Rluc8-Venus/mGsi BRET (AT1R-CXCR2 heteromer [2]) | effect of both CXCL8 and AngII combined on AT1R/Rluc8-Venus/Kras BRET (AT1R-CXCR2 heteromer [3]) | effect of both CXCL8 and AngII combined on AT1R/Rluc8-Venus/Rab5 BRET (AT1R-CXCR2 heteromer [3]) | effect of AngII on AT1R/Rluc8-Venus/Kras BRET (AT1R-CXCR2 heteromer [3]) | effect of AngII on AT1R/Rluc8-Venus/Rab5 BRET (AT1R-CXCR2 heteromer [3])
1 | O=C(Nc1ccc([N+](=O)[O-])cc1O)Nc1ccccc1Br [SB225002] | indistinguishable from the effect observed with AngII only | appears to inhibit the effect of AngII as well as that of CXCL8 | indistinguishable from the effect observed with AngII only | did not alter | did appear to inhibit | did not alter | completely inhibited | indistinguishable from that observed with AngII only | not being altered | indistinguishable from the effect observed with AngII only | indistinguishable from the effect observed with AngII only | – | –
2 | CCOc1nc2cccc(C(=O)O)c2n1Cc1ccc(-c2ccccc2-c2nc(=O)o[nH]2)cc1 [azilsartan] | indistinguishable from the effect observed with CXCL8 only | indistinguishable from the effect observed with CXCL8 only | completely inhibited | completely inhibited | completely inhibited | completely inhibited | not being altered | indistinguishable from that observed with CXCL8 only | completely inhibited | completely inhibited | completely inhibited | completely inhibited | completely inhibited
3 | CCOc1nc2cccc(C(=O)O)c2n1Cc1ccc(-c2ccccc2-c2nnn[nH]2)cc1 [candesartan] | – | – | – | – | – | – | not being altered | indistinguishable from that observed with CXCL8 only | completely inhibited | – | – | – | –
4 | Cc1c(F)cccc1NC(=O)Nc1ccc(Cl)c(S(=O)(=O)[C@H]2CCCNC2)c1O [danirixin] | – | – | – | – | – | – | completely inhibited | indistinguishable from that observed with AngII only | not being altered | indistinguishable from the effect observed with AngII only | indistinguishable from the effect observed with AngII only | – | –
5 | CCCCc1ncc(/C=C(\Cc2cccs2)C(=O)O)n1Cc1ccc(C(=O)O)cc1 [eprosartan] | – | – | – | – | – | – | not being altered | indistinguishable from that observed with CXCL8 only | completely inhibited | – | – | – | –
6 | CCCCC1=NC2(CCCC2)C(=O)N1Cc1ccc(-c2ccccc2-c2nnn[nH]2)cc1 [irbesartan] | indistinguishable from the effect observed with CXCL8 only | indistinguishable from the effect observed with CXCL8 only | completely inhibited | completely inhibited | completely inhibited | completely inhibited | not being altered | indistinguishable from that observed with CXCL8 only | completely inhibited | completely inhibited | completely inhibited | completely inhibited | completely inhibited
7 | CCCCc1nc(Cl)c(CO)n1Cc1ccc(-c2ccccc2-c2nn[nH]n2)cc1 [losartan] | – | – | – | – | – | – | not being altered | indistinguishable from that observed with CXCL8 only | completely inhibited | – | – | – | –
8 | CC[C@@H](Nc1c(Nc2cccc(C(=O)N(C)C)c2O)c(=O)c1=O)c1ccc(C)o1 [navarixin] | indistinguishable from the effect observed with AngII only | indistinguishable from the effect observed with AngII only | indistinguishable from the effect observed with AngII only | did not alter | did not alter | did not alter | completely inhibited | indistinguishable from that observed with AngII only | not being altered | indistinguishable from the effect observed with AngII only | indistinguishable from the effect observed with AngII only | – | –
9 | CCCc1nc2c(C)cc(-c3nc4ccccc4n3C)cc2n1Cc1ccc(-c2ccccc2C(=O)O)cc1 [telmisartan] | – | – | – | – | – | – | not being altered | indistinguishable from that observed with CXCL8 only | completely inhibited | – | – | – | –
